Assay results as given in patent US20170107503A1, “NOVEL METHODS, POLYPEPTIDES AND USES THEREOF” (priority 2014, published 2017).

Legend:
Format in all cases: biochemical
Conditions in all cases: WT-Trp = 100
[1] = molecular target: T1, Atlantic cod (Gadus morhua) trypsin I, wildtype, purified from Atlantic cod (WT-Trp), SEQ ID NO: 1 (Gadus morhua, UniProt P16049); assay: Activity assay to determine kinetic constants, WT-Trp (purified)
T1 construct: from tissue
T1 sequence (P16049 20-241): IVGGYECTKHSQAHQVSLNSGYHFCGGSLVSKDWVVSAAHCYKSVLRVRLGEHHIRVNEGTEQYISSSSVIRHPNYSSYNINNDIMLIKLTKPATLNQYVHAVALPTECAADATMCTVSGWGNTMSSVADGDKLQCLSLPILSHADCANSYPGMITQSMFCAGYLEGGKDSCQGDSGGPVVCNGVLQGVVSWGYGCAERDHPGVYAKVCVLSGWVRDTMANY
Protocol: The following polypeptides were obtained or produced: • (a) Wildtype trypsin I purified from Atlantic cod (“WT-Tryp” or “wildtype”); • (b) Recombinantly expressed wildtype trypsin I of Atlantic cod (SEQ ID NO:1, “R-Tryp”); and • (c) Thirty-eight different mutated versions of trypsin I of Atlantic cod (i.e. mutated sequences of SEQ ID NO:1).
(§1) The substrate (Gly-Pro-Arg) was used at concentrations 0.005-0.15 mM in assay buffer containing 1% DMSO. 245 μL of substrate solutions were pipetted into a 96-well plate. The reaction was started by adding 5 μL of the sample mixture (above) and monitored at 410 nm in a SpectraMax plate reader. Kinetic measurement was performed every minute of a continuous 15-min run.

[2] = molecular target: T2, Atlantic cod (Gadus morhua) trypsin I, recombinant wildtype, EZA-001, SEQ ID NO: 1 (Gadus morhua, UniProt P16049); assay: Activity assay to determine kinetic constants, EZA-001
T2 construct: made in house; host or cells: E. coli BL21 (DE3)
T2 sequence (P16049 20-241): T1 sequence (P16049 20-241)
Protocol: (§2) Polypeptides corresponding to the wildtype amino acid sequence of trypsin I from Atlantic cod and thirty-eight mutated versions thereof were produced using the methods described in Example A.
(§3) Activation of recombinant enzymes (approximately 0.01 mg/ml) was achieved by adding wild type trypsin (0.2 U/ml) at room temperature and incubate for 24 hours. The mixture was made in 20 mM Tris-HCl, 1 mM CaCl2, 50% glycerol, pH 8.0 to a final volume of 200 μl.
as §1

[3] = system: Atlantic cod (Gadus morhua) trypsin I variant EZA-002, N244S, Y245N, S87K in SEQ ID NO: 1 (N240S, Y241N, S88K in SEQ ID NO: 2); assay: Activity assay to determine kinetic constants, EZA-002
Protocol: as §2, §3, §1

[4] = molecular target: T3, Atlantic cod (Gadus morhua) trypsin I variant EZA-003, K154T in SEQ ID NO: 1 (K152T in SEQ ID NO: 2) (Gadus morhua, UniProt P16049, K152T); assay: Activity assay to determine kinetic constants, EZA-003
T3 construct: made in house; host or cells: E. coli BL21 (DE3)
T3 sequence (P16049 20-241 K152T): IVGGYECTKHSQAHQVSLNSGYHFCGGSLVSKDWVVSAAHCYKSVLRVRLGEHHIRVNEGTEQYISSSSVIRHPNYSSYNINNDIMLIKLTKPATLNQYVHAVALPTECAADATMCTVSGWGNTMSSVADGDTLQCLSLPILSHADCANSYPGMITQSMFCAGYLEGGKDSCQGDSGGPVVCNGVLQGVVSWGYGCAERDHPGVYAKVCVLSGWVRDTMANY
Protocol: as §2, §3, §1

[5] = system: Atlantic cod (Gadus morhua) trypsin I variant EZA-004, K154L in SEQ ID NO: 1 (K152L in SEQ ID NO: 2); assay: Activity assay to determine kinetic constants, EZA-004
Protocol: as §2, §3, §1

[6] = system: Atlantic cod (Gadus morhua) trypsin I variant EZA-005, K154V in SEQ ID NO: 1 (K152V in SEQ ID NO: 2); assay: Activity assay to determine kinetic constants, EZA-005
Protocol: as §2, §3, §1

[7] = molecular target: T4, Atlantic cod (Gadus morhua) trypsin I variant EZA-006, K154E in SEQ ID NO: 1 (K152E in SEQ ID NO: 2) (Gadus morhua, UniProt P16049, K152E); assay: Activity assay to determine kinetic constants, EZA-006
T4 construct: made in house; host or cells: E. coli BL21 (DE3)
T4 sequence (P16049 20-241 K152E): as the sequence (P16049 20-241 K152T) above, with T133E counted along it
Protocol: as §2, §3, §1

[8] = system: Atlantic cod (Gadus morhua) trypsin I variant EZA-007, N98T in SEQ ID NO: 1 (N99T in SEQ ID NO: 2); assay: Activity assay to determine kinetic constants, EZA-007
Protocol: as §2, §3, §1

[9] = system: Atlantic cod (Gadus morhua) trypsin I variant EZA-008, I99L in SEQ ID NO: 1 (I100L in SEQ ID NO: 2); assay: Activity assay to determine kinetic constants, EZA-008
Protocol: as §2, §3, §1

[10] = system: Atlantic cod (Gadus morhua) trypsin I variant EZA-009, L185G, P225Y in SEQ ID NO: 1 (L184G, P221Y in SEQ ID NO: 2); assay: Activity assay to determine kinetic constants, EZA-009
Protocol: as §2, §3, §1

Substance: Gly-Pro-Arg
- Vmax (Kcat), Relative to WT-Trp [1]: 100
- Vmax, Relative to WT-Trp [2]: 99
- Vmax, Relative to WT-Trp [3]: 99
- Vmax, Relative to WT-Trp [4]: 96
- Vmax, Relative to WT-Trp [5]: 82
- Vmax, Relative to WT-Trp [6]: 96
- Vmax, Relative to WT-Trp [7]: 98
- Vmax, Relative to WT-Trp [8]: 99
- Vmax, Relative to WT-Trp [9]: 95
- Vmax, Relative to WT-Trp [10]: 98
